What was measured:
[1] = test system: AMPA (glutamate subtype) receptor; test: Whole-cell patch-clamp, evoked inward synaptic current at -60 mV (glutamate currents); assay type: cell-based; settings: 2 μM NBQX; whole-cell patch-clamped neurons
Method: Data were prepared as graphs of the effect of agents on the GABAA receptor-mediated transmission in the mutant and wt cells using whole-cell patch-clamping. The data included the evoked synaptic response ([…]) from whole-cell patch-clamped neurons. […] The evoked synaptic responses (averaged up to 15 each) recorded at holding potentials of 0 mV and −60 mV with the stimulating electrode placed in stratum radiatum at site 1, ˜50μm from the recording electrode at site 2, ˜250 μm from the recording electrode and at site two with the stimulus intensity increased ˜3-fold. Graphs were prepared of examples of averaged (up to 15 each) traces from patch-clamp whole-cell recordings-in wt and Δ9 mutation at […] (glutamate currents) and at 0 mV (GABAA currents). The graphs included peak amplitude of response ratios (measured at holding potentials of −60 mV and 0 mV, respectively) from cells in individual slices (n=9 slices each).

GABAA receptor = assay type: cell-based

| Compound | block of inward current at holding potential of −60 mV [1] | block of outward current (di-synaptic inhibition) (GABAA receptor) | block of outward current recorded at 0 mV (GABAA receptor) |
| --- | --- | --- | --- |
| NS(=O)(=O)c1cccc2c1c([N+](=O)[O-])cc1nc(O)c(O)nc12 [NBQX] | completely blocked | blocked some of the outward current |  |
| picrotoxin |  |  | completely blocked |
